Source: paper PMC12084297, “Cytoplasmic connexin43-microtubule interactions promote glioblastoma stem-like cell maintenance and tumorigenicity” (Cell Death & Disease, 2025)

Columns and labels:
Cx43 = settings: prior work with JM2; ref [41]; cited from earlier work
From the text: Using JM2, a Cx43 mimetic peptide of Cx43 tubulin-binding domain, we confirm efficient and specific disruption of Cx43-microtubule interaction in GSCs together with decreased self-renewal abilities and enhanced killing of this cancer stem-like cell population, highlighting a novel tumorigenic role for Cx43 in GSCs, and GBM. Thermal shift assays reveal JM2 presents high affinity for both α- and β- tubulin. While chemotherapeutic drugs such as paclitaxel have been used to target microtubule functions as therapeutic agents, many of these therapeutic agents cause significant side-effects. M ...

LN229/GSC tumor = LN229/GSC tumor growth in mouse flank; type: in vivo, mouse (BALB/c nude), human LN229/GSC cells
From the text: Animal studies were approved by the Institutional Animal Care and Use Committee (IACUC) of Virginia Tech. Female athymic nude mice (Envigo) aged 6-8 weeks were used for the maintenance and propagation of PDX GBM22 cells. PDX GBM22 tumors were maintained by serial passage in nude mouse flanks as described previously. Briefly, tumors were harvested 14–18 days post-injection and glioblastoma cells were mechanically and enzymatically dissociated. Cells were passed through a 40 µm filter and maintained as gliospheres in DMEM/F-12 without phenol red and with L-glutamine (Thermo Fisher), supplemented with 10 ng/ml fibroblast growth factor (Thermo Fisher), 10 ng/ml epidermal growth factor (Thermo Fisher), Gibco B-27 Supplement without vitamin A (Thermo Fisher), amphotericin (Fisher), and gentamycin (Fisher). The medium was changed daily for 2 days. […] After 2 days, tumors were measured and mice were randomly separated into three groups (7 mice per group), and vehicle/control (PBS), JM2-scrambled or JM2 were administered at 300 μM intratumorally every day for 14 days. Tumors were then measured by blinded investigators and harvested for analysis (see section below). Tumor volume was calculated using the formula (length × width^2)/2. […] After 7 days, tumors were measured and mice were randomly separated into three groups; vehicle/control (PBS), JM2-scrambled, and JM2 (3 mice per group). […] Tumor sizes were measured by electronic calipers at different times by blinded investigators, and tumor volume was calculated using the formula (length × width^2)/2.
All quantification was performed on experiments repeated at least three times. […] Data were analyzed for significance using Student’s t test, one-way ANOVA with Tukey’s multiple comparisons test, and presented as mean ± SD. […] Statistical significance between experimental groups was determined using chi-square (χ²) tests within the ELDA framework. […]

[1] = LN229/GSC model, 300 µM intratumorally every other day, first 31 days, n = 3

## VFFKGVKDRVKGRSD [JM2]
Cx43
  Cx43 delivery to the cell surface: a loss of Cx43 delivery to the cell surface due to increased Cx43/tubulin complexing
LN229/GSC tumor; 300 μM intratumorally every other day, 24 days, after 33 days, n = 3 mice per group, compared to control or JM2-scrambled
  Tumor growth, LN229/GSC model: significant decrease in tumor growth
LN229/GSC tumor; [1]
  t(87) statistic, rate of tumor growth, JM2 vs Control: -5.081
  t(87) statistic, rate of tumor growth, JM2 vs JM2-scrambled: -3.873
